Experimental data from PMC8405639, “2-Carba-lysophosphatidic acid is a novel β-lysophosphatidic acid analogue with high potential for lysophosphatidic acid receptor activation and autotaxin inhibition” (Scientific Reports, 2021).

Columns and labels:
hLPA3 = target: T1, hLPA3 (Homo sapiens, UniProt Q9UBY5); experiment: TGFα-shedding assay, LPA3; assay type: cell-based; settings: 293A cells, AP-TGFα release; for EC50: 1 h; for Emax: read-out: Emax ± SEM hLPA3 (converted)
T1 construct: expressed in transfected cells; host or cells: 293A cells
T1 sequence (Q9UBY5 1-353): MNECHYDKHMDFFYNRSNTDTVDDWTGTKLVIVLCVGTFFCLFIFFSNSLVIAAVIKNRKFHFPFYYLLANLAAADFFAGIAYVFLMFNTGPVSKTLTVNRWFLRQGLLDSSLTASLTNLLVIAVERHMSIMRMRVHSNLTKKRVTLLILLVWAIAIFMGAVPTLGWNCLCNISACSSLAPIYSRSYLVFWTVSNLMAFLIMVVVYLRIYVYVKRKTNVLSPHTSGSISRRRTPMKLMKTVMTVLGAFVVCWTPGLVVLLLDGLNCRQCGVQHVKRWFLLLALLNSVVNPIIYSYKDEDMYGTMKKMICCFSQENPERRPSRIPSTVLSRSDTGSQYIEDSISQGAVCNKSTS
Protocol: 293A cells expressing LPA receptors were stimulated with the indicated concentration of LPA, 2carbaLPA, and cPA analogues. Receptor-specific alkaline phosphatase-tagged transforming growth factor-α release was calculated by subtracting the responses in the empty vector-transfected cells from those in the receptor-expressing cells. Data are represented as standard error of the mean of three independent replicates.
293A cells (Life Technologies, Tokyo, Japan) were cultured in DMEM (Nissui Pharmaceutical, Tokyo, Japan) supplemented with 10% foetal calf serum (Gibco, Waltham, MA, USA) in an incubator at 37 °C and 5% CO2. This assay was conducted according to a modified version of a method described previously. […] The cells were co-transfected with vectors-expressing human LPA1–6, alkaline phosphatase-tagged TGFα (AP-TGFα). As negative controls, cells transfected with an empty vector instead of the receptor-expressing vector were used. After 24 h, the cells were resuspended in Hank’s balanced salt solution (HBSS), seeded in 96-well plates, and stimulated with cPA analogues administered at tenfold concentration of the final concentration. The cPA analogues were diluted with HBSS, 0.01% protease and fatty acid-free BSA (SERVA Electrophoresis GmbH, Heidelberg, Germany). Cells for LPA4, LPA5, and LPA6 analysis were treated with Ki16425 (final concentration: 10 μM), 5 min before treatment with the cPA analogues. After incubation for 1 h at 37 °C, 80 µL of the supernatant was transferred to fresh 96-well plates. An equal volume of 1 mM p-NPP solution [120 mM Tris–HCl (pH 9.5), 40 mM NaCl, and 10 mM MgCl2] was added to both the supernatant and the cells. Alkaline phosphatase activity was calculated by measuring absorbance at 405 nm using the Cytation 3 plate reader (BioTek, Winooski, VT, USA).

[1] = tested on: extracellular signal-regulated kinase (ERK) phosphorylation; experiment: Western blot analysis of phosphorylated ERK in HeLa cells; assay type: cell-based; settings: HeLa cells, 10 µM, 5 min, 37 °C, western blot
Protocol: Figure 3 Effects of 2-carba-lysophosphatidic acid (2carbaLPA) on the phosphorylation of the extracellular signal-regulated kinase (ERK) protein. HeLa cells were preincubated with 10 µM Ki16425 for 30 min at 37 °C and then incubated with 10 µM 2carbaLPA, lysophosphatidic acid (LPA) 18:1, or vehicle for 5 min at 37 °C. Protein levels of phosphorylated ERK, total ERK, and α-tubulin were determined by western blot analysis. The full-length blots are shown in the Supplementary Fig. S2.
HeLa cells were obtained from RIKEN RBC Cell Bank (Tsukuba, Japan). […] Cells were harvested using 0.125 M Tris–HCl (pH 6.8) supplemented with 4% sodium dodecyl sulphate (SDS), 20% glycerol, 10% 2-mercaptoethanol, and 0.01% bromophenol blue. Proteins were separated by SDS–polyacrylamide gel electrophoresis, and the proteins were transferred onto an Immobilon-P Transfer Membrane (Millipore, Burlington, MA, USA). The membrane was incubated with primary antibodies: anti-phospho-ERK (pERK), anti-ERK, and anti-tubulin (all at 1:1,000 dilution, Cell Signaling Technology, Danvers, MA, USA). Next, after washing, the membrane was treated with horseradish peroxidase-conjugated anti-rabbit IgG (1:1000 dilution; Cell Signaling Technology). Immunodetection was performed using an enhanced chemiluminescence system (EzWestLumi plus, ATTO Corporation, Tokyo, Japan) and ImageQuant LAS 4000 (GE healthcare, Buckinghamshire, UK).

human recombinant ATX = target: T2, human recombinant ATX (Homo sapiens, UniProt Q13822); experiment: LC-QqQ assay of LPC cleavage by ATX (LPA 16:0 production); assay type: biochemical; settings: for ATX inhibitory activity (LPA 16:0 production, LC-QqQ): 10 µM, LPC 16:0 300 µM, ATX 50 nM, 2 h, 37 °C; for Inhibition of the lysoPLD activity of ATX: stated in Conclusions, assay and concentration not given
T2 construct: purchased Cayman Chemical
Protocol: Figure 5 Inhibition of lysophospholipase D activity of autotaxin (ATX) by cyclic phosphatidic acid (cPA) analogues. (a) Concentration–response curves for the inhibition of ATX activity as measured by the […] of the substrate lysophosphatidylcholine (LPC) using choline oxidase and peroxidase. LPC 16:0 (final concentration: 300 µM, above its critical micellar concentration [CMC]), human recombinant ATX (final concentration: 50 nM), and various concentrations of cPA analogues were used for incubation with 4-aminoantipyrine, TOOS (final concentration: 0.05% (w/v) each), choline oxidase and peroxidase (final concentration: 10 U/mL each) in the ATX assay buffer. The absorbance at a wavelength of 555 nm was measured at 0 and 2 h incubation at 37 °C. Inhibition was calculated as percentage (%) of reduction in absorbance compared with absorbance in the vehicle control (without cPA analogues) after subtraction of the value measured at time 0. Data are represented as mean ± standard deviation (n = 3–4 samples). (b) Inhibition of ATX activity measured by lysophosphatidic acid (LPA 16:0) production via liquid chromatography coupled to triple quadrupole mass spectrometry (LC-QqQ). The substrate LPC 16:0 (final concentration: 300 µM) was incubated with human recombinant ATX (final concentration: 50 nM) and cPA analogues (final concentration: 10 μM) for 2 h at 37 °C. The ATX product, LPA 16:0, was quantified by LC-QqQ. Inhibition was calculated as percentage (%) of reduction in LPA production compared with LPA production in the vehicle control (without cPA analogues). Data are represented as mean ± standard deviation (n = 5–6 samples). TEXT PRINTED IN THE PICTURE: (b) LPA: ATX Inhibition, %: ND
ATX (4 µL, final concentration: 50 nM) and cPA analogues (4 µL, final concentration: 10 µM) were added to a 200-µL siliconized microcentrifuge tube and mixed with 32 µL of LPC 16:0 (final concentration: 300 µM) in ATX assay buffer. After incubation at 37 °C for 2 h, 160 µL of acidic methanol was added to stop enzymatic reaction. Sample solutions were filtered, and the LPA 16:0 production was analysed using LC-QqQ as per methods described previously. Inhibition was calculated as a percentage (%) of reduction in LPA production compared to LPA production in the vehicle control (without cPA analogues).

SMILES	EC50 (hLPA3) [µM]	Emax (hLPA3) [%]	ATX inhibitory activity (LPA 16:0 production, LC-QqQ) (human recombinant ATX)	Inhibition of the lysoPLD activity of ATX (human recombinant ATX) [%]	ERK phosphorylation (activation) [1]
CCCCCCCC/C=C\CCCCCCCC(=O)OCC(CO)CP(=O)(O)O (stereo not drawn) [2carbaLPA 18:1, 2-carba-lysophosphatidic acid]	0.0116	42.7	–	–	activated ERK
CCCCCCCC/C=C\CCCCCCCC(=O)OC[C@@H](O)CCP(=O)(O)O [3carba LPA 18:1, 3-carba-lysophosphatidic acid]	0.0056	44.3	significantly stronger than that of 3ccPA	–	–
CCCCCCCC/C=C\CCCCCCCC(=O)OCC1COP(=O)(O)C1 (stereo not drawn) [2ccPA 18:1, 2-carba-cyclic phosphatidic acid]	0.286	30.8	–	–	–

Further lines, with some results ahead:

EC50 (hLPA3) [µM]	Emax (hLPA3) [%]	ATX inhibitory activity (LPA 16:0 production, LC-QqQ) (human recombinant ATX)	Inhibition of the lysoPLD activity of ATX (human recombinant ATX) [%]	SMILES	ERK phosphorylation (activation) [1]
–	37.4	weak	30	CCCCCCCC/C=C\CCCCCCCC(=O)OC[C@@H]1CCP(=O)(O)O1 [3ccPA 18:1, 3-carba-cyclic phosphatidic acid]	–
0.439	16.8	poor ATX inhibitor	10	CCCCCCCC/C=C\CCCCCCCC(=O)OC[C@@H]1COP(=O)(O)O1 [cPA 18:1, 1-Oleoyl-cPA]	–
